Laboratory results reported in patent US11267826B2, “Penicillin-binding protein inhibitors” (priority 2017, dated 2022).

Key:
[1] = test system: E. coli DH5a harboring VIM-2; assay: Broth microdilution MIC, engineered E. coli expressing VIM-2; type: cell-based; conditions: Escherichia coli, read-out: MIC, β-lactamase VIM
Procedure: (§1) To determine the ability of test compounds to potentiate the inhibition of the growth of bacterial strains, classic cell based broth microdilution MIC assays were employed. MIC assays are performed according to CLSI methods except where otherwise noted (CLSI, 2011 and CLSI, 2009). The reference strain S. aureus ATCC 29213 and the hyper-permeable E. coli 901C were used to determine the ability of the PBP compounds to inhibit bacterial growth. Briefly, cryo-preserved bacterial cultures of clinical strains are streaked for isolation on appropriate agar medium, in this case Mueller Hinton II agar. Following incubation to allow formation of colonies these plates are sealed with parafilm and stored refrigerated for up to two weeks. For preparation of assay inocula and to ensure low variability, at least 5 colonies are picked from the agar plates with an inoculating loop and aseptically transferred to a culture tube containing 3 mL of Mueller-Hinton Broth (supplemented with divalent cations to required levels based on Manufacturers' certification). The broth culture is grown for 3-5 hours at 37° C. with shaking at 200 rpm. Meanwhile, 2-fold serial dilutions of test compounds are conducted in a 96 well plate with a final volume of 75 μL per well at 2-fold the final desired concentration. After the dilution plates are set up the growing cultures are then diluted in a cuvette containing MH II broth and the optical density is measured at 600 nm. Inocula are diluted such that 75 μL of this culture in Mueller-Hinton Broth results in a starting bacterial concentration of 5×10^5 CFU/mL when added to the dilution plates. The plates are incubated 16-20 hours at 37° C. The MIC is read visually as the lowest concentration well with no bacterial growth.
(§2) To determine if test compounds were affected by various known β-lactamases, the inhibition of the growth of engineered strains of Escherichia coli harboring select single β-lactamases were tested. […]

[2] = test system: hyper-permeable E. coli 901C; assay: Broth microdilution MIC assay, hyper-permeable E. coli; type: cell-based; conditions: Escherichia coli, read-out: E. coli 901C MIC
Outline: (§3)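 Growth inhibition is measured by CLSI broth microdilution. Log-phase bacteria (5×10^5 CFU/mL starting density) are incubated with 2-fold compound dilutions in cation-supplemented MH broth for 16-20 hours at 37° C, and the MIC is scored visually.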

[3] = test system: E. coli DH5a with pLBII plasmid with no β-lactamase gene; assay: Broth microdilution MIC, engineered E. coli control strain (pLBII plasmid, no β-lactamase gene); type: cell-based; conditions: Escherichia coli, read-out: MIC, β-lactamase None
Procedure: as §1, §2

E. coli K12 PBP1a/b = assay: Bocillin FL competition binding assay, PBP1a/1b combined; design: species or system Escherichia coli K12; conditions: 15 min pre-incubation, PBP 1a/1b combined
Outline: (§4)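 E. coli K12 membrane extracts (100 µg protein) pre-incubated 15 min with compound (0.005–2,480 µg/mL) in pH 7 phosphate/350 mM NaCl, then labelled with Bocillin FL 30 min at 35°C; SDS-PAGE fluorescence (ex 450/em 520 nm), μg/mL reported. PBP1a/1b unresolved, reported combined.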

[4] = test system: E. coli DH5a harboring OXA-48; assay: Broth microdilution MIC, engineered E. coli expressing OXA-48; type: cell-based; conditions: Escherichia coli, read-out: MIC, β-lactamase OXA
Procedure: as §1, §2

[5] = test system: E. coli DH5a harboring SHV-5; assay: Broth microdilution MIC, engineered E. coli expressing SHV-5; type: cell-based; conditions: Escherichia coli, read-out: MIC, β-lactamase SHV
Procedure: as §1, §2

E. coli PBP3 = biological target: T1, E. coli PBP3 (Escherichia coli, UniProt P0AD68); assay: Bocillin FL competition binding assay, PBP3; design: species or system Escherichia coli K12; conditions: 15 min pre-incubation
T1 construct: 100 μg's of total membrane protein extracts containing PBPs; endogenous in cells; host or cells: Escherichia coli K12, membrane protein fraction
T1 sequence (P0AD68 1-577): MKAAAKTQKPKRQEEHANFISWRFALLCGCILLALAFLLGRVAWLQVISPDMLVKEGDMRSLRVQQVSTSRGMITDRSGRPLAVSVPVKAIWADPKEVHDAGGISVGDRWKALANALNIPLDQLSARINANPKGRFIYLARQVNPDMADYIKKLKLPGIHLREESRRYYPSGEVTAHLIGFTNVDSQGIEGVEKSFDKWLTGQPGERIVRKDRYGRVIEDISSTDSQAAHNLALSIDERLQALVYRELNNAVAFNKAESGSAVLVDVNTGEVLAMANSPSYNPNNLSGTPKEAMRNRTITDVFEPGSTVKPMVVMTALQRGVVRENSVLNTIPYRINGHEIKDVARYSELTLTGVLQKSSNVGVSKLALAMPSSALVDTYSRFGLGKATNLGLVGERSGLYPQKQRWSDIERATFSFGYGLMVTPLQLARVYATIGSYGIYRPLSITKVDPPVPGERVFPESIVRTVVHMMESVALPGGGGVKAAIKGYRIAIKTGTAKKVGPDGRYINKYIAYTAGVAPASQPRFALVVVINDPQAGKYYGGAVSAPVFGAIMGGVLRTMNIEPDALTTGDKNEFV
Outline: as §4

[6] = test system: E. coli DH5a harboring NDM-1; assay: Broth microdilution MIC, engineered E. coli expressing NDM-1; type: cell-based; conditions: Escherichia coli, read-out: MIC, β-lactamase NDM
Procedure: as §1, §2

[7] = test system: E. coli DH5a harboring KPC-2; assay: microbe, parasite or virus in culture; type: cell-based; conditions: Escherichia coli, read-out: MIC, β-lactamase KPC
Procedure: To determine the ability of test compounds to potentiate the inhibition of the growth of bacterial strains, classic cell based broth microdilution MIC assays were employed. MIC assays are performed according to CLSI methods except where otherwise noted (CLSI, 2011 and CLSI, 2009). The reference strain S. aureus ATCC 29213 and the hyper-permeable E. coli 901C were used to determine the ability of the PBP compounds to inhibit bacterial growth. Briefly, cryo-preserved bacterial cultures of clinical strains are streaked for isolation on appropriate agar medium, in this case Mueller Hinton II agar. Following incubation to allow formation of colonies these plates are sealed with parafilm and stored refrigerated for up to two weeks. For preparation of assay inocula and to ensure low variability, at least 5 colonies are picked from the agar plates with an inoculating loop and aseptically transferred to a culture tube containing 3 mL of Mueller-Hinton Broth (supplemented with divalent cations to required levels based on Manufacturers' certification). The broth culture is grown for 3-5 hours at 37° C. with shaking at 200 rpm. […] After the dilution plates are set up the growing cultures are then diluted in a cuvette containing MH II broth and the optical density is measured at 600 nm. […] The MIC is read visually as the lowest concentration well with no bacterial growth. […]

[8] = test system: E. coli DH5a harboring IMP-18; assay: Broth microdilution MIC, engineered E. coli expressing IMP-18; type: cell-based; conditions: Escherichia coli, read-out: MIC, β-lactamase IMP
Procedure: as §1, §2

E. coli PBP2 = biological target: T2, E. coli PBP2 (Escherichia coli, UniProt P0AD65); assay: Bocillin FL competition binding assay, PBP2; design: species or system Escherichia coli K12; conditions: 15 min pre-incubation
T2 construct: 100 μg's of total membrane protein extracts containing PBPs; endogenous in cells; host or cells: Escherichia coli K12, membrane protein fraction
T2 sequence (P0AD65 whole entry): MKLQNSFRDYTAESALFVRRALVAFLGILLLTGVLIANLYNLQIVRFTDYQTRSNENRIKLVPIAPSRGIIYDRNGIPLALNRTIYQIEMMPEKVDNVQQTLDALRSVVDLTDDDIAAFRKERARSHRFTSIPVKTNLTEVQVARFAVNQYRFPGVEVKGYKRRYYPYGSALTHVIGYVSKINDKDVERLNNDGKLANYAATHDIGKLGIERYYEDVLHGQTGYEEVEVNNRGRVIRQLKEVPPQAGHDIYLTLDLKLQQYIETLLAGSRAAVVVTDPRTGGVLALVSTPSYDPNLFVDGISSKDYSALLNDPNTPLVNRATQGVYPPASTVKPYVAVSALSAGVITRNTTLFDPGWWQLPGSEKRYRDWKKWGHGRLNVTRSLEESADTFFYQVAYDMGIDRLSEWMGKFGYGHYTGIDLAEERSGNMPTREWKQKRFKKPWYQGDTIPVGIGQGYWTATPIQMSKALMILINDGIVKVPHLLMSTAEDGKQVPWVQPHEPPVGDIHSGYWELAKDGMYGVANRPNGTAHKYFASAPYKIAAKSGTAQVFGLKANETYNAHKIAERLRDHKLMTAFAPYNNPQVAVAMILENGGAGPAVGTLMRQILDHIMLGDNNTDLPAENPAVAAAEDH
Outline: as §4

[9] = test system: E. coli DH5a harboring CTX-M15; assay: Broth microdilution MIC, engineered E. coli expressing CTX-M15; type: cell-based; conditions: Escherichia coli, read-out: MIC, β-lactamase CTXM
Procedure: as §1, §2

S. aureus ATCC 29213 = assay: Broth microdilution MIC assay, S. aureus; type: cell-based; conditions: Staphylococcus aureus, ATCC29213; broth microdilution, 16-20 hours at 37° C.; read-out: S. aureus 29213 MIC
Outline: as §3

[10] = test system: E. coli DH5a harboring TEM-24; assay: Broth microdilution MIC, engineered E. coli expressing TEM-24; type: cell-based; conditions: Escherichia coli, read-out: MIC, β-lactamase TEM
Procedure: as §1, §2

[11] = test system: engineered strains of Escherichia coli harboring select single β-lactamases; assay: MIC across the panel of engineered E. coli strains harboring select single β-lactamases; type: cell-based; conditions: strains expressing β-lactamases compared with control strain, result in words
Procedure: To determine if test compounds were affected by various known β-lactamases, the inhibition of the growth of engineered strains of Escherichia coli harboring select single β-lactamases were tested. These strains were constructed by cloning the gene encoding the particular β-lactamase into the NdeI and BamHI restriction endonuclease sites of plasmid pLBII, placing the gene(s) under the control of the Lac promoter.

E. coli K12 PBP1b = biological target: T3, E. coli K12 PBP1b (Escherichia coli, UniProt P02919); assay: Competition binding assay using Bodipy-FL boronic acid probe (Example 125); conditions: Bodipy-FL boronic acid probe (Example 125) 30 μM, 10 minutes pre-incubation, 10 minutes reaction
T3 construct: endogenous in cells; host or cells: Escherichia coli K12, membrane protein fraction
T3 sequence (P02919 whole entry): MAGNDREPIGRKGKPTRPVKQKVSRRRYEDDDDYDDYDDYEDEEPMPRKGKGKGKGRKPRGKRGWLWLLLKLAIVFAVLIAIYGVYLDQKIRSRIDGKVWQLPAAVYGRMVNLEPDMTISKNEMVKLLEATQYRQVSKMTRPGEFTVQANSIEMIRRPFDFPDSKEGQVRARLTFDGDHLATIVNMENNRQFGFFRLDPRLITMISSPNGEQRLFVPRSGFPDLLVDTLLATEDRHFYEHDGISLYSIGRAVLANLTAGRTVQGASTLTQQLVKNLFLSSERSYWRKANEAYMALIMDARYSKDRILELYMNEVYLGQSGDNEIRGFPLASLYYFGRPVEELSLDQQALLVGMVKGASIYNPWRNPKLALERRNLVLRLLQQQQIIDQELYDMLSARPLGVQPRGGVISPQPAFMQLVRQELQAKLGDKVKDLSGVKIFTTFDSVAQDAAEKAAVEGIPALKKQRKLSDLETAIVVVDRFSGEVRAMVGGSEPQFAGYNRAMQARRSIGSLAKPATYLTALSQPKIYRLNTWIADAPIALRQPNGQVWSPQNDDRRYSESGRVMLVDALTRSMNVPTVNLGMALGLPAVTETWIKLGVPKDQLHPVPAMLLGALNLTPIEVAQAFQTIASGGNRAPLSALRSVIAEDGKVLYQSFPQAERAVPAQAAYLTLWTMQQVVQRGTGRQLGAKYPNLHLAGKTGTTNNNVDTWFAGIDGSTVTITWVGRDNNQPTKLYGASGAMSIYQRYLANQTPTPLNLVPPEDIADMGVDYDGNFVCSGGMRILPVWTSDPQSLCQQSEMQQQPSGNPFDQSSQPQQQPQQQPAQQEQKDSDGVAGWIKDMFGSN
Procedure: Penicillin binding proteins were isolated from Escherichia coli K12 by growth of Escherichia coli K12 from a single colony in 4 L of Luria-Bertani (LB) broth at 35° C. and 250 rpm to an OD600 nm of 0.5. The cells were harvested by centrifugation at 7,000×g for 10 min. at 4° C. Cells were resuspended and washed in 50 mM potassium phosphate pH 7.5. The cells were re-suspended in sonication buffer [50 mM Tris-HCl pH 7.5, 1 mM MgCl2, 1 mM beta-mercaptoethanol, and 5 μg/mL DNAse I] and sonicated by 4 passes of 30 seconds at 45 W on ice. The sample was clarified by centrifugation at 3,000×g to remove cell debris and unbroken cells and supernatant containing the membrane proteins was retained. The membrane proteins including the PBPs were further purified from soluble constituents by an ultracentrifugation step at 100,000×g for 30 min. at 4° C. The membrane proteins are washed twice with 10 mM sodium phosphate pH 7, resuspended in a volume of 5 mL, quantitated by BCA assay, adjusted to […] and frozen at −80° C. until use.
The adapted Bocillin FL competition binding method described herein incorporates a 15 min. pre-incubation of test compound with isolated PBPs to attempt to balance the difference in mechanism of inhibition between beta-lactams (largely irreversible covalent bond to active site Serine) and the boron-containing PBP inhibitor test compounds (reversible covalent bond to active site Serine). Briefly, 50 μL reactions consisted of 100 μg's of total membrane protein extracts containing PBPs incubated with a dilution series of test compound ranging from 0.005 μg/mL to 2,480 μg/mL in 10 mM sodium phosphate pH7 containing 350 mM NaCl. Thirty minute reactions at 35° C. were initiated by addition of […] Bocillin FL, quenched by addition of SDS-PAGE loading buffer containing sodium dodecyl sulfate (SDS) and heated for 15 minutes at 95° C. to denature proteins in preparation for SDS-polyacrylamide gel electrophoresis. The Bocillin FL labeled PBPs are then separated by SDS-PAGE in Novex NuPage 10% Bis-Tris pre-cast gels (Invitrogen). The SDS-PAGE gel, post-electrophoresis, is then washed in water to remove excess SDS for 10 minutes at room temperature and placed on the scanning bed of a GE Healthcare/Amersham Biosciences Storm 860 fluorescence scanner. The excitation wavelength is in the blue spectrum at 450 nm and the emission at 520 nm is captured by the instrument. Effective PBP inhibitors are detected by a reduction in Bocillin FL labeling of the particular PBP over the dose range of test compound in a dose-responsive manner. High molecular weight PBP 1a/1b are not resolved by these gels, thus we report HMW PBP binding results in μg/mL for PBPs 1a/1b combined as well as for PBP2 and PBP3.
To determine the ability of boronic acid-based test PBP inhibitors to bind Penicillin Binding Proteins (PBPs), a competition binding assay using a Bodipy-FL-labeled boronic acid PBP inhibitor (Example 125) was adapted from the classical method used to assess PBP potency of beta-lactams using Bocillin-FL (fluorescently-labeled penicillin V). The method is identical to that described in Example I for the Bocillin-FL competition binding assay with the following exceptions, the Bodipy-FL boronic acid probe (Example 125) is used at a final concentration of 30 μM, pre-incubation time of test compound with PBP enzymes is 10 minutes and reaction time is set for 10 minutes and reactions are prepared for SDS-PAGE analysis by simply adding SDS-containing loading buffer. Representative results are shown in Table 5, where A represents a potency of >1000 μg/mL, B represents a potency between 64 and 1000 μg/mL inclusive, and C represents a potency of <64 μg/mL. NT=Not Tested.

| SMILES | MIC [1] | MIC [2] | MIC [3] | E. coli K12 PBP1a/b Potency (E. coli K12 PBP1a/b) | MIC [4] | MIC [5] | E. coli PBP3 Potency (E. coli PBP3) | MIC [6] | MIC [7] | MIC [8] | E. coli PBP2 Potency (E. coli PBP2) | MIC [9] | MIC (S. aureus ATCC 29213) | MIC [10] | Effect of expressed β-lactamase on MIC [11] | E. coli K12 PBP1b Potency (E. coli K12 PBP1b) |
| --- | --- | --- | --- | --- | --- | --- | --- | --- | --- | --- | --- | --- | --- | --- | --- | --- |
| CO/N=C(\C(=O)N[C@H]1Cc2cccc(C(=O)O)c2OB1O)c1csc(N)n1 [Example 1, (R,Z)-3-(2-(2-aminothiazol-4-yl)-2-(methoxyimino)acetamido)-2-hydroxy-3,4-dihydro-2H-benzo[e][1,2]oxaborinine-8-carboxylic Acid] | 8 µg/mL | < 64 µg/mL | 8 µg/mL | C (C represents a potency of <64 μg/mL) | 8 µg/mL | 8 µg/mL | C (C represents a potency of <64 μg/mL) | 8 µg/mL | 4 µg/mL | 8 µg/mL | A (A represents a potency of >1000 μg/mL) | 8 µg/mL | 64 to 128 µg/mL | 8 µg/mL | the same MIC values in strains regardless of the β-lactamase expressed | – |
| N=C(NC1CCNCC1)c1ccc(OCCO/N=C(\C(=O)N[C@H]2Cc3cccc(C(=O)O)c3OB2O)c2csc(N)n2)cc1 [Example 47, (R,Z)-3-(2-(2-aminothiazol-4-yl)-2-((2-(4-(N-(piperidin-4-yl)carbamimidoyl)phenoxy)ethoxy)imino)acetamido)-2-hydroxy-3,4-dihydro-2H-benzo[e][1,2]oxaborinine-8-carboxylic Acid] | – | < 64 µg/mL | – | B (B represents a potency between 64 and 1000 μg/mL inclusive) | – | – | B (B represents a potency between 64 and 1000 μg/mL inclusive) | – | – | – | B (B represents a potency between 64 and 1000 μg/mL inclusive) | – | 64 to 128 µg/mL | – | – | B (B represents a potency between 64 and 1000 μg/mL inclusive) |
| CCO/N=C(\C(=O)N[C@H]1Cc2cccc(C(=O)O)c2OB1O)c1csc(N)n1 [Example 48, (R,Z)-3-(2-(2-aminothiazol-4-yl)-2-(ethoxyimino)acetamido)-2-hydroxy-3,4-dihydro-2H-benzo[e][1,2]oxaborinine-8-carboxylic Acid] | – | < 64 µg/mL | – | B (B represents a potency between 64 and 1000 μg/mL inclusive) | – | – | B (B represents a potency between 64 and 1000 μg/mL inclusive) | – | – | – | B (B represents a potency between 64 and 1000 μg/mL inclusive) | – | 64 to 128 µg/mL | – | – | B (B represents a potency between 64 and 1000 μg/mL inclusive) |
